Assays:
NK cells = settings: Paolino et al., 2014; cited from earlier work
[1] = system: tumor models with different histologies; settings: Paolino et al., 2014; cited from earlier work
Tyro3 = Tyro3 (Homo sapiens (Human), UniProt Q06418); experiment: TAM Enzymatic Assay (HTRF), Tyro3; type: biochemical; settings: 0.366 nM Tyro3, 60 min room temperature
Procedure: (§1) The kinase assay buffer contained 50 mM HEPES, pH7.5, 10 mM MgCl2, 1 mM EGTA, 0.01% NP-40 and 2 mM DTT. 0.1 ul test compounds dissolved in DMSO were transferred from compound plates to white 384-well assay plates (Greiner […] plates). […] 4 ul enzyme solution (or assay buffer for the enzyme blank) was added to the appropriate wells in each plate, and then 4 ul/well substrate solution was added to initiate the reaction. The plate was protected from light and incubated at room temperature for 60 min. […] The plate was incubated for 1 h at room temperature, and HTRF (homogenous time resolved fluorescence) signal was measured on a PHERAstar FS plate reader (BMG labtech). Percentage of inhibition was calculated for each concentration and IC50 value was generated from curve fitting with GraphPad Prism software.

Axl = Axl (Homo sapiens (Human), UniProt P30530); experiment: TAM Enzymatic Assay (HTRF), phosphor-Axl; type: biochemical; settings: 5.1 nM phosphor-Axl, 60 min room temperature
Procedure: Autophosphorylation of Axl was carried out by incubating the recombinant Axl protein (Life Technologies, PV4275) in buffer containing 50 mM Tris, pH7.5, 0.2 mg/ml Axl, 5 mM ATP, 20 mM MgCl2 and 2 mM DTT at room temperature for 1 hour.
as §1

c-Mer = c-Mer (Homo sapiens (Human), UniProt Q12866); experiment: TAM Enzymatic Assay (HTRF), c-Mer; type: biochemical; settings: 0.0625 nM c-Mer, 60 min room temperature
Procedure: as §1

Axl, sequence (P30530 26-894): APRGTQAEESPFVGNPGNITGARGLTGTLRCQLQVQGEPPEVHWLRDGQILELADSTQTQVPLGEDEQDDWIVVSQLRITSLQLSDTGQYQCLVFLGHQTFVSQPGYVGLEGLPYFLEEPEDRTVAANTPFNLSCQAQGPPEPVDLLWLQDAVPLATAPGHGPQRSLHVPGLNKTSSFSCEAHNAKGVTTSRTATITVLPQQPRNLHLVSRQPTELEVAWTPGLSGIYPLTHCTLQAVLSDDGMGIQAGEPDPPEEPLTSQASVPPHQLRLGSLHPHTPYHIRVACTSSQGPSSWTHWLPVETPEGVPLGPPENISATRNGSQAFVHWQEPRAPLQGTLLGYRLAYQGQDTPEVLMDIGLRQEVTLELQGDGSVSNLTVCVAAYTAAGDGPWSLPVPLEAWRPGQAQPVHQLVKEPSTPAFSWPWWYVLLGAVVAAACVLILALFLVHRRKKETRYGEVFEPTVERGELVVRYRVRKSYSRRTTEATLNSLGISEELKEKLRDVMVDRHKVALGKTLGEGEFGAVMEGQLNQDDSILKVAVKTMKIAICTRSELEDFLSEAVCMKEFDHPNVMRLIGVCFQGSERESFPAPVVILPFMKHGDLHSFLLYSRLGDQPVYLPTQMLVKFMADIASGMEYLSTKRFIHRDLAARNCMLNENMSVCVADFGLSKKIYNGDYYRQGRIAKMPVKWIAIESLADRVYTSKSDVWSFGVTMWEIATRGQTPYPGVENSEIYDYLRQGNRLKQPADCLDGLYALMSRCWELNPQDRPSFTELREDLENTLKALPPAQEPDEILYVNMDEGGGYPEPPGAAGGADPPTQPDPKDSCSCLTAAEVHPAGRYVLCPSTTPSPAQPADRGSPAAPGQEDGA
c-Mer, sequence (Q12866 21-999): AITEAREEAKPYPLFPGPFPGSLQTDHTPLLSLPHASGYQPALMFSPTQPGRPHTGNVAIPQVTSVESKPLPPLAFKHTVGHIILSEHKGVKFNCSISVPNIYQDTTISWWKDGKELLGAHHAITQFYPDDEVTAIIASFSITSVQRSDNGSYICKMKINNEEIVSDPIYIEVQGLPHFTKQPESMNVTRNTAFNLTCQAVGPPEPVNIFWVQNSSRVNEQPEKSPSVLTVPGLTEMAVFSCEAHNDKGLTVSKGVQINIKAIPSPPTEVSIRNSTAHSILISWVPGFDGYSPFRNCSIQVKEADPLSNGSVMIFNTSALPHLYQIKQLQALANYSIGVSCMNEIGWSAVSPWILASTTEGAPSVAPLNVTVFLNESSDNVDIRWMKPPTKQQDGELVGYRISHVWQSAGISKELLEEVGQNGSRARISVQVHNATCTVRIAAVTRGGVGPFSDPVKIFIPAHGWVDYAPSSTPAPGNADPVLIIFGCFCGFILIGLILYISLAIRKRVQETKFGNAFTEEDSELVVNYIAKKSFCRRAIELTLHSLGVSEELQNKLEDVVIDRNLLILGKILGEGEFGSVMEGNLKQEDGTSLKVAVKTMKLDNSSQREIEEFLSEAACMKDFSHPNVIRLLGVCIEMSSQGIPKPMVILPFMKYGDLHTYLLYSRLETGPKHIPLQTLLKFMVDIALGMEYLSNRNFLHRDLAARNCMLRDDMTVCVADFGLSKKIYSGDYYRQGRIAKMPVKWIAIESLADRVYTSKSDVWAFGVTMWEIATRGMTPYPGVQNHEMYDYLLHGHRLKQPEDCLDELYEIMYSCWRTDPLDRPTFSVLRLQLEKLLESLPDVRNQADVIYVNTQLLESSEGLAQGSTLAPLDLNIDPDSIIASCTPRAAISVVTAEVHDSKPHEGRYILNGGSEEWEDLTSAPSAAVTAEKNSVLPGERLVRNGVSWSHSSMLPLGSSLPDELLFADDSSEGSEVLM
Tyro3, sequence (Q06418 41-890): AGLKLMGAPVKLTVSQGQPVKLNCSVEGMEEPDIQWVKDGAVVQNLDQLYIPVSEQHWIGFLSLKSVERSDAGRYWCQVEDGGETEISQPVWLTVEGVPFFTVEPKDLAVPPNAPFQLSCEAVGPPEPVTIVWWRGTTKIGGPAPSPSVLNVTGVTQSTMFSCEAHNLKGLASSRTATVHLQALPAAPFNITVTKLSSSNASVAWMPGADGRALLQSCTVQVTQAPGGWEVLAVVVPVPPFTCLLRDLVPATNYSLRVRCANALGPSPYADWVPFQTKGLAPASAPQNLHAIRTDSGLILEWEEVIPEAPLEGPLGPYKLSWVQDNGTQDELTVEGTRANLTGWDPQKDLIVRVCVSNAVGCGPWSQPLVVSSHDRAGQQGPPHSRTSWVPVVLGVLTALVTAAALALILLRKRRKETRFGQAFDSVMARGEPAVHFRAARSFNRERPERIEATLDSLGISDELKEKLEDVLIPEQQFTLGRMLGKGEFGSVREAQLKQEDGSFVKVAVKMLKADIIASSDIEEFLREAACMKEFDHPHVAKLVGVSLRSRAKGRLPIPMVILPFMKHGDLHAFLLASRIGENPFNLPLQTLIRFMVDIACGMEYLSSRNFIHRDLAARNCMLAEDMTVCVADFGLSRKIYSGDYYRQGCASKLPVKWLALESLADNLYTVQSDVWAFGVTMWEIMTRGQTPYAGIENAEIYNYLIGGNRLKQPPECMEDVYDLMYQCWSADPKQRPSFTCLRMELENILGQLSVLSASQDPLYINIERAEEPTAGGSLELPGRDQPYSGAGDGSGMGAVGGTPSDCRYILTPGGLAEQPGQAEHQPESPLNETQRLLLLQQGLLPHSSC

Row | SMILES | activation of NK cells (NK cells) | metastasis in tumor models [1] | IC50 (Tyro3) [nM] | IC50 (Axl) [nM] | IC50 (c-Mer) [nM]
1 | CCOc1cn(-c2ccc(F)cc2C)nc1C(=O)Nc1ccc(Oc2ccnc3cc(OC)c(OC)cc23)c(F)c1 [LDC1267] | activates NK cells | blocks metastasis |  |  | 
2 | CC(O)Cn1cc(C(=O)Nc2ccc(-c3cc(C4CCN(C(=O)C5CC5)CC4)n4ncnc(N)c34)cc2)c(=O)n(-c2ccccc2)c1=O (racemic) [Example 80, N-(4-(4-Amino-7-(1-(cyclopropanecarbonyl)piperidin-4-yl)pyrrolo[1,2-f][1,2,4]triazin-5-yl)phenyl)-1-(2-hydroxypropyl)-2,4-dioxo-3-phenyl-1,2,3,4-tetrahydropyrimidine-5-carboxamide] |  |  | > 100 | < 5 | 
3 | CC(=O)c1cc(C(=O)Nc2ccc(-c3cc(C4CCN(C(=O)C(C)C)CC4)n4ncnc(N)c34)cc2)c(=O)n(-c2ccccc2)c1C [Example 112, 5-Acetyl-N-(4-(4-amino-7-(1-isobutyrylpiperidin-4-yl)pyrrolo[1,2-f][1,2,4]triazin-5-yl)phenyl)-6-methyl-2-oxo-1-phenyl-1,2-dihydropyridine-3-carboxamide] |  |  | 10 to 100 | < 5 | ≤ 5
4 | CC(C)n1cc(C(=O)Nc2ccc(-c3cc(C4CCN(C5CCN(C)C5=O)CC4)n4ncnc(N)c34)cc2)c(=O)n(-c2ccccc2)c1=O (racemic) [Example 82, N-(4-(4-Amino-7-(1-(1-methyl-2-oxopyrrolidin-3-yl)piperidin-4-yl)pyrrolo[1,2-f][1,2,4]triazin-5-yl)phenyl)-1-isopropyl-2,4-dioxo-3-phenyl-1,2,3,4-tetrahydropyrimidine-5-carboxamide] |  |  |  | < 5 | ≤ 5

Reference: patent US10442810B2, “Pyrrolotriazine compounds as TAM inhibitors” (Incyte Corporation, priority 2016, dated 2019)
